Measurements as given in patent US9650339B2, “Inhibitors of histone demethylases” (Gilead Sciences, Inc., priority 2013, dated 2017).

Legend:
Format in all cases: cell-based
KDM6B = target: T1, KDM6B (Homo sapiens, UniProt O15054); assay: Histone lysine demethylase immunofluorescence assay, U2OS cells transfected with KDM6B; conditions: U2OS cells transfected with pCMVHA KDM6B; mark detected H3K27me2; 20 hours
T1 construct: (a.a. 1026-1682); host or cells: U2OS
Description: (§1) U2OS cells were seeded 24 hours before transfection. Transfection was performed with Fugene HD transfection reagent as recommended by the manufacturer. 6 hours after transfection, the cells were harvested and seeded into multi well plates into media containing compound. The media used was DMEM containing 10% FBS and pen/strep. 20 hours after incubation of cells with compounds, the cells were washed in PBS, harvested by fixation with formaldehyde 4% aqueous solution, and washed in PBS. Subsequently, the cells were permeabilized in PBS with 0.2% Triton X-100 for. Blocking was performed in PBS with 0.2% Triton X-100 and 5% FBS. The cells were incubated with primary antibodies in blocking solution over night at 4° C. The primary antibodies used in the assays were HA.11 (Covance, MMS-101P) and the antibody detecting the mark specified in the table below. After incubation with primary antibodies, the cells were washed with PBS, incubated with secondary antibodies (Alexa fluor 594 goat anti rabbit IgG, Invitrogen, A11012; Alexa flour 488 donkey anti mouse IgG, Invitrogen, A21202) and Hoechst, (Sigma, 33342) in blocking solution, and washed again with PBS. Finally, PBS was added and high throughput imaging and analysis were performed by an IN Cell Analyzer 1000 (GE Healthcare). The robot software analyzed individual cells and divided these into HA+ (transfected cells) and HA− (non-transfected cells). The IC50 values were based on an average measure of the staining of the mark specified in the table below in the transfected cells.

KDM4A = target: T2, KDM4A (Homo sapiens, UniProt O75164); assay: Histone lysine demethylase immunofluorescence assay, U2OS cells transfected with KDM4A; conditions: U2OS cells transfected with pCMVHA KDM4A; mark detected H3K9me3; 20 hours
T2 construct: Full length; host or cells: U2OS
T2 sequence (O75164 1-1064): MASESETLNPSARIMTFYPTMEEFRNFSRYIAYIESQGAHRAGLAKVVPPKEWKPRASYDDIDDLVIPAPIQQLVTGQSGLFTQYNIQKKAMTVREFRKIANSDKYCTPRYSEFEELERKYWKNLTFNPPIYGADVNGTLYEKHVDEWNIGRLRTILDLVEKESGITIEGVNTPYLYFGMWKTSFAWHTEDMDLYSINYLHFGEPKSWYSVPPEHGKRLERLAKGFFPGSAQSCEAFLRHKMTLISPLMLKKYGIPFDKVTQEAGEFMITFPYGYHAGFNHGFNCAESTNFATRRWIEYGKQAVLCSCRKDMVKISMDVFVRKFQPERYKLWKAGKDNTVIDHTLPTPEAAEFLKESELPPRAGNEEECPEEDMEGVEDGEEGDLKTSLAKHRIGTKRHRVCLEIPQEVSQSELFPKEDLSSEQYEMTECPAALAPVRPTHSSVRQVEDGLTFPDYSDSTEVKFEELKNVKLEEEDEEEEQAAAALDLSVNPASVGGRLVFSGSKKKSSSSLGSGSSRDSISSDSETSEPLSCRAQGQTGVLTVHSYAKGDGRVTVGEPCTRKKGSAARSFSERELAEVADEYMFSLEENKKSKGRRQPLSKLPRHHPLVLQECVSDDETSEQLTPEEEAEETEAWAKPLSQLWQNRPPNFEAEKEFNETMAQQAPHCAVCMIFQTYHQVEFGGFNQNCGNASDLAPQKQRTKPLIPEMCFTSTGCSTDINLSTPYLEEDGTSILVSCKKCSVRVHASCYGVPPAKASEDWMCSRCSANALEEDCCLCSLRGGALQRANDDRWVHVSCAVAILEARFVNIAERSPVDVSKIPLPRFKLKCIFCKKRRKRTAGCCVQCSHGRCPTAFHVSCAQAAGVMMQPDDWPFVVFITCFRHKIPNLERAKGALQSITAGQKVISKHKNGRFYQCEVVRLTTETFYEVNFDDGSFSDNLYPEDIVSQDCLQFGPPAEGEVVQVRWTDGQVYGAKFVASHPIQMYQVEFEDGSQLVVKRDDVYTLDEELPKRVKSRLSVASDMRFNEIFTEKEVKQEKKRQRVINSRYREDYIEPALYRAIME
Description: as §1

KDM2A = target: T3, KDM2A (Homo sapiens, UniProt Q9Y2K7); assay: Histone lysine demethylase immunofluorescence assay, U2OS cells transfected with KDM2A; conditions: U2OS cells transfected with pCMVHA KDM2A; mark detected H3K36me2; 20 hours
T3 construct: Full length; host or cells: U2OS
T3 sequence (Q9Y2K7 1-1162): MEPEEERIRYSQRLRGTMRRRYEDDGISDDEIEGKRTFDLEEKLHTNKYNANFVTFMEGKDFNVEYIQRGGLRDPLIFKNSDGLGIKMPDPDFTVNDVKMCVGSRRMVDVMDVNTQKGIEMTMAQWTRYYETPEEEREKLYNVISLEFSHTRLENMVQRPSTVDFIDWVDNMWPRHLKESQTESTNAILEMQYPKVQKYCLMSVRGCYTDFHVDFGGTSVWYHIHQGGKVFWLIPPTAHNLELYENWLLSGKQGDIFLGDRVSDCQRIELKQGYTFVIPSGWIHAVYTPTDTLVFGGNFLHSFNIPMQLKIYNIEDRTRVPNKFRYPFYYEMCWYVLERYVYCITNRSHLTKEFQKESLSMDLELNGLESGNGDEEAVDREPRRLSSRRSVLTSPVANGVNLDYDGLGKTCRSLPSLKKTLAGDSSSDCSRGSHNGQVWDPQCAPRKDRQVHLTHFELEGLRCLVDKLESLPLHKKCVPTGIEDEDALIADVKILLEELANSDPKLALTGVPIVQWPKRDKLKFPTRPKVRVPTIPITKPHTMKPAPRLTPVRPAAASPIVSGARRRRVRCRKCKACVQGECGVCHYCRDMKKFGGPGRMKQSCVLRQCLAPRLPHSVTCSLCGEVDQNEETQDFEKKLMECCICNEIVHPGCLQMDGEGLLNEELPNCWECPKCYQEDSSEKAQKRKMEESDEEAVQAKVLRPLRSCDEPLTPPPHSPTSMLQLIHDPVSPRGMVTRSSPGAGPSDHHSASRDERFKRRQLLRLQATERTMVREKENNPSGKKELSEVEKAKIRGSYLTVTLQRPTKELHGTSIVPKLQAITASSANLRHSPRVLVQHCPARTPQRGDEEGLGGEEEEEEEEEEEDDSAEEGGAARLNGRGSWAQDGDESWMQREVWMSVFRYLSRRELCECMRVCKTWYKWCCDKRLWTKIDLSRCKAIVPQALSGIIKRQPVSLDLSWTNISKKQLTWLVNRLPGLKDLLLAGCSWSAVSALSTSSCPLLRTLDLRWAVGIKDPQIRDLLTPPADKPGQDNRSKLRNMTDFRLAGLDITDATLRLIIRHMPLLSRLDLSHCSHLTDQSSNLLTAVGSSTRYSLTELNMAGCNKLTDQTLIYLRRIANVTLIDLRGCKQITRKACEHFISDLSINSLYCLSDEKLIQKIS
Description: as §1

T1 sequence (O15054 1026-1682 isoform O15054-1): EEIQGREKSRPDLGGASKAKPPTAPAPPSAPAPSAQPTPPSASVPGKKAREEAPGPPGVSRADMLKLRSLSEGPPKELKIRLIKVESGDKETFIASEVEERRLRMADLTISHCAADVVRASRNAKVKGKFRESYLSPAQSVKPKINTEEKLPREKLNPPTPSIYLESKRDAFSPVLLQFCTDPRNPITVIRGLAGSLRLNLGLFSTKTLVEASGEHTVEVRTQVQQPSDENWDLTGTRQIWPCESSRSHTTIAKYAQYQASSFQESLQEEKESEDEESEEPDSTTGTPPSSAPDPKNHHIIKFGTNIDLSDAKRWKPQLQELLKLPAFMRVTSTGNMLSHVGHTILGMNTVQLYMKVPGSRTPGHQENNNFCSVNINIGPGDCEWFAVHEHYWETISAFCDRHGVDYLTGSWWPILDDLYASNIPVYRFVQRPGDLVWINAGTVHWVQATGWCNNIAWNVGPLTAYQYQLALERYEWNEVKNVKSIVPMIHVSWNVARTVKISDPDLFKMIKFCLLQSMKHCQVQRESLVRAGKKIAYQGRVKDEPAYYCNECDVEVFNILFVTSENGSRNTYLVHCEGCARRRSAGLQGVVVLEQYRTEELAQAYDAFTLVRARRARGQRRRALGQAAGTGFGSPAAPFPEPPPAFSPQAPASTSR

Row | SMILES | IC50 (KDM6B) | IC50 (KDM4A) | IC50 (KDM2A)
1 | CCN(CCN(C)C)C(=O)CNCc1cc(CN)ccn1 [Compound 4, 2-({[4-(aminomethyl)pyridin-2-yl]methyl}amino)-N-[2-(dimethylamino)ethyl]-N-ethylacetamide] | > 2500 nM |  | 
2 | COc1ccccc1CN1CCC(NC(=O)CNCc2cc(CN)ccn2)CC1 [Compound 9, 2-({[4-(aminomethyl)pyridin-2-yl]methyl}amino)-N-{1-[(2-methoxyphenyl)methyl]-piperidin-4-yl}acetamide] |  | > 2500 nM | 
3 | CN(C)C(=O)CNCc1cc(CNCC#N)ccn1 [Compound 13, 2-{[(4-{[(cyanomethyl)amino]-methyl}pyridin-2-yl)methyl]amino}-N,N-dimethylacetamide] |  | 250 to 2500 nM | 
4 | CN(C)CCNCc1ccnc(CNCC(=O)N(C)C)c1 [Compound 15, 2-({[4-({[2-(dimethylamino)ethyl]-amino}methyl)pyridin-2-yl]methyl}amino)-N,N-dimethylacetamide] |  | > 2500 nM | 
5 | CNC(C#N)c1ccnc(CNCCCN(C)C)c1 (stereo not shown) [Compound 24, 2-[2-({[3-(dimethylamino)propyl]-amino}methyl)pyridin-4-yl]-2-(methylamino)-acetonitrile] | > 2500 nM |  | 
6 | CN(C)C(=O)CNCc1cc(/C=N/CCC2CCCCC2)ccn1 [Compound 36, 2-[({4-[[(2-cyclohexylethyl)imino]-methyl]pyridin-2-yl}methyl)amino]-N,N-dimethylacetamide] |  | > 2500 nM | 
7 | CN(CCCNCc1cc(/C=N/C2CC2)ccn1)Cc1ccccc1 [Compound 41, N-({2-[({3-[benzyl(methyl)amino]-propyl}amino)methyl]-pyridin-4-yl}methylidene)-cyclopropanamine] |  | > 2500 nM | 
8 | C(=N/C1CC1)/c1ccnc(CNCCCN2CCCC2)c1 [Compound 42, N-{[2-({[3-(pyrrolidin-1-yl)propyl]amino}-methyl)pyridin-4-yl]methylidene}-cyclopropanamine] | > 2500 nM | > 2500 nM | 
9 | CN(C)CC1CCC(CNCc2cc(/C=N/C3CC3)ccn2)CC1 (stereo not shown) [Compound 46, N-[(2-{[({4-[(dimethylamino)-methyl]cyclohexyl}-methyl)amino]-methyl}pyridin-4-yl)methylidene]-cyclopropanamine] |  | < 250 nM | 
10 | O=C(CNCc1cc(/C=N/C2CC2)ccn1)NC1CCN(Cc2ccccc2)C1 (stereo not shown) [Compound 53, N-(1-benzylpyrrolidin-3-yl)-2-[({4-[N-cyclopropyl-carboximidoyl]pyridin-2-yl}methyl)amino]-acetamide] |  | > 2500 nM | 
11 | CCN(CC)CCCCNCc1cc(/C=N/CCOC)ccn1 [Compound 60, [4-(diethylamino)butyl]-({4-[[(2-methoxyethyl)imino]-methyl]pyridin-2-yl}methyl)amine] |  | 250 to 2500 nM | 
12 | CCN(CCN(C)C)C(=O)CNCc1cc(C2OCC(Cc3ccccc3)CN2C(=O)C(F)(F)F)ccn1 (stereo not shown) [Compound 90, 2-[({4-[5-benzyl-3-(trifluoroacetyl)-1,3-oxazinan-2-yl]pyridin-2-yl}methyl)amino]-N-[2-(dimethylamino)-ethyl]-N-ethylacetamide] | > 2500 nM | < 250 nM | 
13 | CN(Cc1ccccc1F)C(=O)CNCc1cc(/C=N/CCO)ccn1 [Compound 92, N-[(2-fluorophenyl)methyl]-2-[({4-[[(2-hydroxyethyl)imino]-methyl]pyridin-2-yl}methyl)amino]-N-methylacetamide] |  |  | > 2500 nM
14 | OCC/N=C/c1ccnc(CNCCc2ccccc2OCc2ccccc2)c1 [Compound 93, 2-[({2-[({2-[2-(benzyloxy)phenyl]-ethyl}amino)methyl]-pyridin-4-yl}methylidene)-amino]ethan-1-ol] |  |  | > 2500 nM
15 | CCN(CCC#N)C(=O)CNCc1cc(/C=N/CCO)ccn1 [Compound 94, N-(2-cyanoethyl)-N-ethyl-2-[({4-[[(2-hydroxyethyl)imino]-methyl]pyridin-2-yl}methyl)amino]-acetamide] |  |  | > 2500 nM
16 | CC(C)C[C@H](NCc1cc(/C=N/CCO)ccn1)C(=O)N1CCCCC1 [Compound 95, (2S)-2-[({4-[[(2-hydroxyethyl)imino]-methyl]pyridin-2-yl}methyl)amino]-4-methyl-1-(piperidin-1-yl)pentan-1-one] |  |  | > 2500 nM
17 | CN(C)C/C=C/CNCc1cc(C=O)ccn1 [Compound 98, 2-({[(2E)-4-(dimethylamino)but-2-en-1-yl]amino}-methyl)pyridine-4-carbaldehyde] |  | < 250 nM | 
18 | CCN(CCN(C)C)C(=O)CNCc1cc(C=O)ccn1 [Compound 101] | > 2500 nM | 250 to 2500 nM | 
19 | O=Cc1ccnc(CNCC(=O)N2CCC[C@@H]2CN2CCCC2)c1 [Compound 102, 2-[({2-oxo-2-[(2R)-2-(pyrrolidin-1-ylmethyl)pyrrolidin-1-yl]ethyl}amino)-methyl]pyridine-4-carbaldehyde] |  | 250 to 2500 nM | 
20 | CCN(CC)CCCCNCc1cc(C=O)ccn1 [Compound 107, 2-({[4-(diethylamino)-butyl]amino}-methyl)pyridine-4-carbaldehyde] | > 2500 nM |  | 
21 | O=Cc1ccnc(CNCCCN2CCCC2)c1 [Compound 111, 2-({[3-(pyrrolidin-1-yl)propyl]amino}-methyl)pyridine-4-carbaldehyde] |  | > 2500 nM | 
22 | CN(CC(=O)N1CCCCC1)Cc1cc(C=O)ccn1 [Compound 120, 2-({methyl[2-oxo-2-(piperidin-1-yl)ethyl]amino}-methyl)pyridine-4-carbaldehyde] |  |  | > 2500 nM
